What was measured:
[1] = Exudation of active agents from gel specimens to filter paper discs, quantified by UV, MS, GC and/or HPLC after extraction; format: physicochemical; conditions: for Active Agent Transferred from Gel to Filters: 37° C., 0.40 psi; for Total Active Agent Exuded from Gel: cumulative
Experimental: Sample filter paper discs were placed in contact with gel specimens of same diameter under constant low pressure (0.40 psi. (2.8 Mpa)) at 37° C. Multiple time-controlled exposures of the filter paper to the gel were preformed in succession to same side of gel. Quantification of active agent transferred to the filter paper discs was determined by UV, MS, GC and or HPLC analysis after extraction of active agent from the filter paper. Exudation rates was expressed as μg/unit time per unit surface area.
This compound was then divided into three aliquots' of approximately 10 grams each and poured into a 2.625″ diameter aluminum petri dish and allowed to cool to create individual gel samle discs. Subsequently, absorbent cellulose filter blotter paper was die cut to enough 2.625″ diameter discs to be employed as a wicking media for repeated exposure in direct contact with the gel compound under specific conditions as follows.
(§1) Exposure Conditions: 37-40 deg. C., Sample filter paper discs in contact with gel specimens of same diameter were stacked in […]. aluminum petri dishes, gel specimen diameter 2.625″×0.125″ thick, filter paper disc diameter 2.625″ with another petri dish and a 1 kg dead weight on top of stack. Pressure calculated at ˜0.407 psi. (2.8 Mpa) constant. Two replicates per test condition. Repeat exposures at 3 hours then repeat three exposures of 18 hours each, changing discs but keeping same gel specimen and same side of each gel specimen in contact with each successive filter paper disc sample.
The filter paper disc specimens aa through kk were then sent to an analytical laboratory for HPLC and GC analysis along with a small sample of each individual raw ingredient so that the HPLC and GC equipment could be calibrated for the protocol being employed by the lab. This calibration allowed for determining the maximum recoverable (measurable) amount of each ingredient that could be measured using these techniques and would later be used to correct the data. The analytical laboratory then detected and measured the amount of each of the added active agents that was flushed out of the filter paper discs using wet chemistry techniques known to those skilled in the art.
The analytical data was interpreted, and the amounts of each ingredient which was exuded into each filter paper blotter disc specimen, and subsequently extracted using wet chemistry, were then entered into a data analysis spreadsheet and adjusted based on the Analytical Recovery Rate to determine actual concentration of each ingredient extracted.

[2] = Total weight of exudate (oil) absorbed by filter paper blotter discs and theoretical amount of each ingredient exuded; format: physicochemical
Experimental: as §1
Data was calculated to determine the total weight of exudate absorbed by each individual sample filter paper blotter disc test specimen. Calculations were then performed based upon the ratios of ingredients in the gel disc formula to determine the theoretical amount of each ingredient that could have been exuded from the oil if the oil contained the same ratio of ingredients as contained in the control oil sample and in the gel.

## O=c1c(O)c(-c2ccc(O)c(O)c2)oc2cc(O)cc(O)c12 [Quercetin]
[1]; Gel Specimen Number 1, 1 h filter exposure, time 0-1 h
  Active Agent Transferred from Gel to Filters: 10 μg per filter
[1]; Gel Specimen Number 1, 3 h filter exposure, time 1-4 h
  Active Agent Transferred from Gel to Filters: 11 μg per filter
[1]; Gel Specimen Number 1, 18 h filter exposure, time 4-22 h
  Active Agent Transferred from Gel to Filters: 21 μg per filter
[1]; Gel Specimen Number 1, 18 h filter exposure, time 22-40 h
  Active Agent Transferred from Gel to Filters: 31 μg per filter
[1]; Gel Specimen Number 1, 18 h filter exposure, time 40-58 h
  Active Agent Transferred from Gel to Filters: 15 μg per filter
[1]; Gel Specimen Number 1, Time 1 h
  Total Active Agent Exuded from Gel: 10 µg
[1]; Gel Specimen Number 1, Time 4 h
  Total Active Agent Exuded from Gel: 21 µg
[1]; Gel Specimen Number 1, Time 22 h
  Total Active Agent Exuded from Gel: 42 µg
[1]; Gel Specimen Number 1, Time 40 h
  Total Active Agent Exuded from Gel: 72 µg
[1]; Gel Specimen Number 1, Time 58 h
  Total Active Agent Exuded from Gel: 87 µg
[1]; Gel Specimen Number 2, 1 h filter exposure, time 0-1 h
  Active Agent Transferred from Gel to Filters: 12 μg per filter
[1]; Gel Specimen Number 2, 3 h filter exposure, time 1-4 h
  Active Agent Transferred from Gel to Filters: 15 μg per filter
[1]; Gel Specimen Number 2, 18 h filter exposure, time 4-22 h
  Active Agent Transferred from Gel to Filters: 30 μg per filter
[1]; Gel Specimen Number 2, 18 h filter exposure, time 22-40 h
  Active Agent Transferred from Gel to Filters: 21 μg per filter
[1]; Gel Specimen Number 2, 18 h filter exposure, time 40-58 h
  Active Agent Transferred from Gel to Filters: 16 μg per filter
[1]; Gel Specimen Number 2, Time 1 h
  Total Active Agent Exuded from Gel: 12 µg
[1]; Gel Specimen Number 2, Time 4 h
  Total Active Agent Exuded from Gel: 27 µg
[1]; Gel Specimen Number 2, Time 22 h
  Total Active Agent Exuded from Gel: 57 µg
[1]; Gel Specimen Number 2, Time 40 h
  Total Active Agent Exuded from Gel: 78 µg
[1]; Gel Specimen Number 2, Time 58 h
  Total Active Agent Exuded from Gel: 94 µg
[1]; Specimen aa, Hours 1, Cummulative Hours 1
  Quantitative Analysis - Islechem u-gram extraction: 9 u-gram
[1]; Specimen bb, Hours 1, Cummulative Hours 1
  Quantitative Analysis - Islechem u-gram extraction: 11 u-gram
[1]; Specimen cc, Hours 3, Cummulative Hours 4
  Quantitative Analysis - Islechem u-gram extraction: 9.4 u-gram
[1]; Specimen dd, Hours 3, Cummulative Hours 4
  Quantitative Analysis - Islechem u-gram extraction: 13.2 u-gram
[1]; Specimen ee, Hours 18, Cummulative Hours 22
  Quantitative Analysis - Islechem u-gram extraction: 18.6 u-gram
[1]; Specimen ff, Hours 18, Cummulative Hours 22
  Quantitative Analysis - Islechem u-gram extraction: 28.6 u-gram
[1]; Specimen gg, Hours 18, Cummulative Hours 40
  Quantitative Analysis - Islechem u-gram extraction: 27.5 u-gram
[1]; Specimen hh, Hours 18, Cummulative Hours 40
  Quantitative Analysis - Islechem u-gram extraction: 19 u-gram
[1]; Specimen ii, Hours 18, Cummulative Hours 58
  Quantitative Analysis - Islechem u-gram extraction: 13.2 u-gram
[1]; Specimen kk, Hours 18, Cummulative Hours 58
  Quantitative Analysis - Islechem u-gram extraction: 14.2 u-gram
[2]; Sample aa, Test Disc 1, Exposed 1 hours
  Estimated grams of ingredient exuded (theoretical amount from ratios of ingredients in the gel disc formula): 0.0009 grams
[2]; Sample bb, Test Disc 1 Replicate, Exposed 1 hours
  Estimated grams of ingredient exuded (theoretical amount from ratios of ingredients in the gel disc formula): 0.0012 grams
[2]; Sample cc, Test Disc 2, Exposed 3 hours
  Estimated grams of ingredient exuded (theoretical amount from ratios of ingredients in the gel disc formula): 0.0009 grams
[2]; Sample dd, Test Disc 2 Replicate, Exposed 3 hours
  Estimated grams of ingredient exuded (theoretical amount from ratios of ingredients in the gel disc formula): 0.0014 grams
[2]; Sample ee, Test Disc 3, Exposed 18 hours
  Estimated grams of ingredient exuded (theoretical amount from ratios of ingredients in the gel disc formula): 0.0024 grams
[2]; Sample ff, Test Disc 3 Replicate, Exposed 18 hours
  Estimated grams of ingredient exuded (theoretical amount from ratios of ingredients in the gel disc formula): 0.0024 grams
[2]; Sample gg, Test Disc 4, Exposed 18 hours
  Estimated grams of ingredient exuded (theoretical amount from ratios of ingredients in the gel disc formula): 0.0025 grams
[2]; Sample hh, Test Disc 4 Replicate, Exposed 18 hours
  Estimated grams of ingredient exuded (theoretical amount from ratios of ingredients in the gel disc formula): 0.0022 grams
[2]; Sample ii, Test Disc 5, Exposed 18 hours
  Estimated grams of ingredient exuded (theoretical amount from ratios of ingredients in the gel disc formula): 0.0020 grams
[2]; Sample kk, Test Disc 5 Replicate, Exposed 18 hours
  Estimated grams of ingredient exuded (theoretical amount from ratios of ingredients in the gel disc formula): 0.0020 grams
